# Assay results taken from US20260109731A1, “NE[…] USE THEREOF” (HUNAN MINGRUI PHARMACEUTICAL CO., LTD., priority 2023, published 2026).
# Where two headings read alike, the source gives them in different places.
# Columns and labels:
# [1] = In vitro phase I metabolic stability in male SD rat hepatic microsomes; type: in vitro ADME; details: male SD rat hepatic microsomes
# Experimental: Phase I metabolic stability kit (purchased from HUIZHI HEYUAN BIOTECHNOLOGY (BEIJING) CO., LTD), with the following components of the product:
# Positive substrate testosterone solution (10 mM): diluted with acetonitrile to prepare a 200 μM solution for later use; stop solution & internal standard (testosterone-D3): dissolved with acetonitrile to prepare a 5 ng/mL solution for later use.
# • 1) all components of the kit were thawed in an ice bath and placed on ice for later use; • 2) an incubation system (taking 200 μL system as an example) was prepared:
# • 3) 160 μL of pre-incubation solution B was added into the centrifuge tube containing 40 μL of pre-incubation solution A, uniform mixing was performed by pipetting three times, and the resulting mixture was immediately placed in a water bath at 37° C. for incubation and timing was started; • 4) at predetermined incubation time points (0, 5, 10, 15, 30, 45, 60 minutes), the incubation solution was quantitatively taken out, and 200 μL of stop solution (5 ng/mL testosterone-D3 in acetonitrile, pre-chilled at 4° C.) was added to terminate the reaction (stop solution volume: incubation system volume=1:1). Experimental samples were prepared in triplicate at each time point.
# To verify the validity of the experiment, a positive control group was established concurrently in the whole experiment to evaluate whether the incubation system functioned properly, with the preparation method as follows: the compound to be tested was replaced with the positive substrate testosterone (200 μM in acetonitrile) from the phase I metabolic stability kit, and the other components of the incubation system and experimental method were the same as those of the experimental group.
# The ratio of the chromatographic peak area of the compound to be tested to the chromatographic peak area of the testosterone-D3 (internal standard) was used as the calculated data. By taking the peak area ratio at time zero of the test compound as 100%, the remaining percentages were calculated by comparing the peak area ratio at each time point with the peak area ratio at time zero, and the natural logarithms of the remaining percentages of the substrate at each time point are then subjected to linear regression against the incubation times to obtain the slope k. Therefore, the in vitro metabolic half-life (T1/2) and intrinsic clearance (CLint) were calculated using the following formulas: […]
# [2] = Pharmacokinetic analysis of tail vein administration in mice; details: female, ICR, mouse, 5 mg/kg
# Experimental: Female ICR mice (body weight: 20 g to 22 g) were purchased from BEIJING HFK BIOSCIENCE CO., LTD.
# The animals were sacrificed at blood collection time points (5 min, 1 h and 8 h) for brain tissue collection, and the collected brain tissues were stored at −80° C. for later testing.
# 100 μL of plasma sample, 10 μL of internal standard solution (100 ng/mL testosterone D-3 solution), and 310 μL of acetonitrile were accurately measured, uniformly mixed by vortexing, and centrifuged (14000 rpm, 4° C.), and a resulting supernatant was taken to obtain the plasma sample.
# About 100 mg of brain tissue sample was taken, and accurately weighed, 100 μL of water and 400 μL acetonitrile were accurately added thereto, and a resulting mixture was subjected to homogenization. 100 μL of brain tissue homogenate, 10 μL of internal standard solution (100 ng/mL testosterone D-3 solution), and 310 μL of acetonitrile were accurately measured, uniformly mixed by vortexing, and centrifuged (14000 rpm, 4° C.), and a resulting supernatant was taken to obtain the brain tissue sample.
# 100 μL of blank plasma sample, 10 μL of mixed standard solution, 10 μL of internal standard solution (100 ng/mL testosterone D-3 solution), and 300 μL of acetonitrile were accurately measured, uniformly mixed by vortexing, and centrifuged (14000 rpm, 4° C.), and a resulting supernatant was taken to obtain the plasma matrix standard solution.
# About 100 mg of blank brain tissue sample was taken, and accurately weighed, 100 μL of water and 400 μL acetonitrile were accurately added thereto, and a resulting mixture was subjected to homogenization using a homogenizer. 100 μL of brain tissue homogenate, 10 μL of mixed standard solution, 10 μL of internal standard solution (100 ng/mL testosterone D-3 solution) and 300 μL of acetonitrile were accurately measured, uniformly mixed by vortexing, and centrifuged (14000 rpm, 4° C.), and a resulting supernatant was taken to obtain the Brain tissue matrix standard solution.
# The UPLC-MS/MS method with testosterone D-3 as the internal standard was used to perform analysis and determination by the standard curve method.
# [3] = Pharmacokinetic analysis of oral administration to male rats; type: in vivo; details: oral gavage 12 mg/kg; for Blood drug concentration: individual rats 1-7; for concentration at 0.5 h / concentration at 1 h / concentration at 2 h / concentration at 3 h / concentration at 4 h / concentration at 5 h / concentration at 6 h / concentration at 8 h / concentration at 10 h / concentration at 12 h / concentration at 18 h / concentration at 24 h: male, SD, rat, plasma, po, 12 mg/kg
# Description: Male SD rats (body weight: 230 g to 250 g) were purchased from BEIJING HFK BIOSCIENCE CO., LTD.
compound,measurement,setting,value
"CC(=O)[C@H]1CC[C@H]2[C@@H]3CC[C@H]4C[C@H](O)CC[C@]4(C)[C@H]3CC[C@]12C [Allopregnanolone, 5α-pregnan-3α-ol-20-one, reference compound]",half-life,"[1]; liver microsomes, NADPH system, 37° C., read-out: T1/2 (in vitro metabolic half-life)",2.17 min
same,microsomal CLint,"[1]; liver microsomes, read-out: intrinsic clearance",639 µL/min/mg
same,In vitro CLint,[1]; 37° C.,639.28 μL/min/mg protein
same,k (slope of ln remaining percentage against incubation time),[1]; 37° C.,−0.3196
same,concentration at 5 min,"[2]; brain, intravenous",1070 ng/g
same,concentration at 1 h,"[2]; brain, intravenous",47.3 ng/g
same,concentration at 8 h,"[2]; brain, intravenous",14.4 ng/g
same,Kp at 5 min,"[2]; brain/plasma, intravenous",1.28
same,Kp at 1 h,"[2]; brain/plasma, intravenous",2.71
same,clearance,"[2]; plasma, iv",218 mL/min/kg
same,half-life,"[2]; plasma, iv",40.8 min
same,Blood drug concentration,"[3]; male SD rats, 0.5 h",0 ng/mL
same,level in the plasma at all time points,"[3]; male SD rats, 30 min to 24 h",undetectable
same,Blood drug concentration,"[3]; male SD rats, 1 h",0 ng/mL
same,Blood drug concentration,"[3]; male SD rats, 2 h",0 ng/mL
same,Blood drug concentration,"[3]; male SD rats, 3 h",0 ng/mL
same,Blood drug concentration,"[3]; male SD rats, 4 h",0 ng/mL
same,Blood drug concentration,"[3]; male SD rats, 5 h",0 ng/mL
same,Blood drug concentration,"[3]; male SD rats, 6 h",0 ng/mL
same,Blood drug concentration,"[3]; male SD rats, 8 h",0 ng/mL
same,Blood drug concentration,"[3]; male SD rats, 10 h",0 ng/mL
same,Blood drug concentration,"[3]; male SD rats, 12 h",0 ng/mL
same,Blood drug concentration,"[3]; male SD rats, 18 h",0 ng/mL
same,Blood drug concentration,"[3]; male SD rats, 24 h",0 ng/mL
same,concentration at 0.5 h,"[3]; 0.5 h, individual rats 1-7, read-out: Blood drug concentration",0 ng/mL
same,concentration at 0.5 h,"[3]; 0.5 h, mean of 7 rats, read-out: Blood drug concentration, Mean value",0 ng/mL
same,concentration at 1 h,"[3]; 1 h, individual rats 1-7, read-out: Blood drug concentration",0 ng/mL
same,concentration at 1 h,"[3]; 1 h, mean of 7 rats, read-out: Blood drug concentration, Mean value",0 ng/mL
same,concentration at 2 h,"[3]; 2 h, individual rats 1-7, read-out: Blood drug concentration",0 ng/mL
same,concentration at 2 h,"[3]; 2 h, mean of 7 rats, read-out: Blood drug concentration, Mean value",0 ng/mL
same,concentration at 3 h,"[3]; 3 h, individual rats 1-7, read-out: Blood drug concentration",0 ng/mL
same,concentration at 3 h,"[3]; 3 h, mean of 7 rats, read-out: Blood drug concentration, Mean value",0 ng/mL
same,concentration at 4 h,"[3]; 4 h, individual rats 1-7, read-out: Blood drug concentration",0 ng/mL
same,concentration at 4 h,"[3]; 4 h, mean of 7 rats, read-out: Blood drug concentration, Mean value",0 ng/mL
same,concentration at 5 h,"[3]; 5 h, individual rats 1-7, read-out: Blood drug concentration",0 ng/mL
same,concentration at 5 h,"[3]; 5 h, mean of 7 rats, read-out: Blood drug concentration, Mean value",0 ng/mL
same,concentration at 6 h,"[3]; 6 h, individual rats 1-7, read-out: Blood drug concentration",0 ng/mL
same,concentration at 6 h,"[3]; 6 h, mean of 7 rats, read-out: Blood drug concentration, Mean value",0 ng/mL
same,concentration at 8 h,"[3]; 8 h, individual rats 1-7, read-out: Blood drug concentration",0 ng/mL
same,concentration at 8 h,"[3]; 8 h, mean of 7 rats, read-out: Blood drug concentration, Mean value",0 ng/mL
same,concentration at 10 h,"[3]; 10 h, individual rats 1-7, read-out: Blood drug concentration",0 ng/mL
same,concentration at 10 h,"[3]; 10 h, mean of 7 rats, read-out: Blood drug concentration, Mean value",0 ng/mL
same,concentration at 12 h,"[3]; 12 h, individual rats 1-7, read-out: Blood drug concentration",0 ng/mL
same,concentration at 12 h,"[3]; 12 h, mean of 7 rats, read-out: Blood drug concentration, Mean value",0 ng/mL
same,concentration at 18 h,"[3]; 18 h, individual rats 1-7, read-out: Blood drug concentration",0 ng/mL
same,concentration at 18 h,"[3]; 18 h, mean of 7 rats, read-out: Blood drug concentration, Mean value",0 ng/mL
same,concentration at 24 h,"[3]; 24 h, individual rats 1-7, read-out: Blood drug concentration",0 ng/mL
same,concentration at 24 h,"[3]; 24 h, mean of 7 rats, read-out: Blood drug concentration, Mean value",0 ng/mL
